Source: PubChem BioAssay (NCI)
Values joined by “and” are separate entries in the source; they are usually repeats but may differ in a detail not shown here. Equal entries are not always repeated.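 Five compound concentrations were applied to cells in 96-well plates for 48 hours; endpoints were derived by simple linear interpolation of the resulting dose-response curve. GI50: concentration for 50% inhibition of growth. TGI is the concentration that stops growth completely.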

Legend:
Assay in all cases: NCI-60 cell line screen, 48 h
HOP-62 NSCLC = tested on: HOP-62 NSCLC
K-562 leukemia = tested on: K-562 leukemia
SNB-75 CNS = tested on: SNB-75 CNS
BT-549 breast = tested on: BT-549 breast
SW-620 colon = tested on: SW-620 colon
UACC-62 melanoma = tested on: UACC-62 melanoma
NCI-H226 lung = tested on: NCI-H226 lung
U251 CNS = tested on: U251 CNS
A498 renal = tested on: A498 renal
SR leukemia = tested on: SR leukemia

Row | Structure (SMILES) | GI50 (HOP-62 NSCLC) | TGI (HOP-62 NSCLC) | GI50 (K-562 leukemia) | TGI (K-562 leukemia) | GI50 (SNB-75 CNS) | TGI (SNB-75 CNS) | GI50 (BT-549 breast) | TGI (BT-549 breast) | GI50 (SW-620 colon) | TGI (SW-620 colon) | GI50 (UACC-62 melanoma) | TGI (UACC-62 melanoma) | GI50 (NCI-H226 lung) | TGI (NCI-H226 lung) | GI50 (U251 CNS) | TGI (U251 CNS) | GI50 (A498 renal) | TGI (A498 renal) | GI50 (SR leukemia) | TGI (SR leukemia) [µM]
1 | N#CSCC1CC(O)(c2ccccc2)C(c2ccccc2)C(c2ccc(F)cc2)O1 (centres undefined) | 8.81 µM | 24.3 µM | 1.5 µM | 5.97 µM | 7.63 µM | 45.2 µM | 2.32 µM | 5.39 µM | 3.02 µM | 10 µM | 1.9 µM | 5.58 µM | 4.89 µM | 16.1 µM | 3.66 µM | 15.1 µM | 18.1 µM | 45.9 µM | 0.344 µM | 3.02
2 | COC[C@H]1OC(=O)c2coc3c2[C@@]1(C)C1=C(C3=O)[C@@H]2CCC(=O)[C@@]2(C)C[C@H]1OC(C)=O | – | > 100 µM | – | > 100 µM | – | – | 0.485 µM | 12.7 µM | – | > 100 µM | – | 17.5 µM | 11 µM | > 100 µM | 36.8 µM | > 100 µM | 0.58 µM | 17.3 µM | – | 31.3
3 | Cc1cc(-c2nc3ccc(O)cc3s2)ccc1N | 31.1 µM | > 100 µM | 36.4 µM | > 100 µM | 15.8 µM | 71 µM | 14.2 µM | 33.9 µM | 66.8 µM | > 100 µM | 57.7 µM | > 100 µM | 60.2 µM | > 100 µM | 31.3 µM | > 100 µM | 41.3 µM | > 100 µM | 22 µM | > 100
4 | Cn1c2ccccc2c2nnc(N/N=C/c3ccccn3)nc21 | 0.337 µM | 6.02 µM | 1.75 µM | > 39.6 µM | 1.09 µM | 6.78 µM | 0.452 µM | > 38.9 µM | 0.509 µM | > 82.1 µM | 0.3 µM | 1.03 µM | 0.337 µM | 5.36 µM | 0.357 µM | 14 µM | 0.396 µM | 5.05 µM | 0.23 µM | > 100
5 | COc1ccc(C2=C(c3cn(C)c4ccccc34)C(=O)NC2=O)cc1OC | 11.8 µM | > 25 µM | 4.92 µM | > 25 µM | 0.743 µM | 7.08 µM | 8.02 µM | > 25 µM | 6.96 µM | > 25 µM | 8.12 µM | > 25 µM | 10.8 µM | > 25 µM | 7.62 µM | > 25 µM | 3.43 µM | 8.95 µM | 2.48 µM | > 25
6 | Cc1ccc2c(=O)[nH]sc2c1 | – | 36.7 µM | – | 47.2 µM | – | > 100 µM | – | 30 µM | – | 33.2 µM | – | 41.2 µM | – | 45.5 µM | – | 27.9 µM | – | > 100 µM | – | 18.7
7 | CC1(C)N=C(N)N=C(N)N1c1cccc(CCCCc2ccc(S(=O)(=O)F)cc2Cl)c1 | 5.72 µM | 20.7 µM | 3.42 µM | > 100 µM | 2.74 µM | 23.9 µM | 4.31 µM | > 46.3 µM | 0.701 µM | > 39.8 µM | 0.494 µM | 17.1 µM | 9.37 µM | 50.6 µM | 0.722 µM | 20.4 µM | > 48.2 µM | > 100 µM | 0.456 µM | > 49.5
8 | c1cncc(CNc2ccccc2-c2nnc(Nc3ccc4c(c3)OCCO4)o2)c1 | 0.181 µM | > 100 µM | 0.0432 µM | > 100 µM | 0.0527 µM | > 100 µM | 0.861 µM | 53 µM | 0.0576 µM | > 100 µM | 0.0522 µM | > 100 µM | 0.153 µM | 0.81 µM | 0.157 µM | > 100 µM | 0.138 µM | 1.8 µM | 0.0424 µM | > 36
9 | Cc1nn2c(/C=C3/C(=O)Nc4ccc(Cl)cc43)c(-c3ccccc3)nc2s1 | 2.01 µM | 3.99 µM | 3.85 µM | 20.6 µM | 1.19 µM | 2.69 µM | 3.11 µM | 14.3 µM | 4.51 µM | 19.7 µM | 3.8 µM | 18.5 µM | 1.51 µM | 4.6 µM | 1.73 µM | 3.71 µM | 1.63 µM | 10.6 µM | 3.5 µM | > 100
10 | Cc1ccc(C(=O)N/N=C/c2cccc(Oc3ccccc3)c2)cn1 | 60.2 µM | > 100 µM | 1.81 µM | > 100 µM | 4.85 µM | > 60.7 µM | 5.37 µM | > 55.6 µM | 4.79 µM | > 100 µM | 4.67 µM | > 100 µM | > 64.5 µM | > 100 µM | 6.03 µM | > 100 µM | 9.99 µM | > 100 µM | 1.01 µM | 20.7
11 | CCN(CC)CCCC(C)Nc1cnc(C(=O)Nc2cc(F)cc3cccnc23)cn1 (centres undefined) | 10.8 µM and 1.89 µM | 25.3 µM and 3.62 µM | 1.95 µM and 0.46 µM | 4.97 µM and > 32.5 µM | 4.49 µM and 1.45 µM | 20.1 µM and 2.79 µM | 11.1 µM and 1.59 µM | 24 µM and 3 µM | 4.03 µM and 0.814 µM | 15 µM and 2.62 µM | 2.28 µM and 1.27 µM | 5.5 µM and 2.69 µM | 4.71 µM and 1.99 µM | 18.5 µM and 4.13 µM | 5.72 µM and 1.56 µM | 18.4 µM and 3.01 µM | 2.72 µM and 1.6 µM | 14.5 µM and 3.24 µM | 2.66 µM and 1.6 µM | –
12 | c1ccc2[nH]c(-c3ccc(OCCCCCOc4ccc(-c5nc6ccccc6[nH]5)cc4)cc3)nc2c1 | 2.23 µM | 5.15 µM | 1.04 µM | – | 1.91 µM | 3.69 µM | 2.33 µM | 5.58 µM | 1.02 µM | 3.69 µM | 4.95 µM | 10.8 µM | 21.3 µM | 55.9 µM | 1.91 µM | 4.17 µM | 6.51 µM | 15.8 µM | 0.241 µM | 0.721
13 | CO/N=C1/NC(=O)/C(=C/c2ccc3ncccc3c2)S1 | > 22.6 µM | > 25 µM | > 25 µM | > 25 µM | 4.07 µM | > 25 µM | 9.1 µM | > 25 µM | > 25 µM | > 25 µM | 8.06 µM | > 25 µM | 6.5 µM | > 25 µM | 9.39 µM | > 25 µM | 3.41 µM | 11.5 µM | 14.7 µM | > 25
14 | O=C(Nc1ccc(Nc2ccncc2)cc1)c1ccc(Nc2ccnc3ccc([N+](=O)[O-])cc23)cc1 | > 100 µM | > 100 µM | > 100 µM | > 100 µM | > 100 µM | > 100 µM | > 100 µM | > 100 µM | > 100 µM | > 100 µM | 68.1 µM | > 100 µM | > 100 µM | > 100 µM | 30.1 µM | > 100 µM | > 100 µM | > 100 µM | 7.53 µM | > 100
15 | N#CC(C#N)=CN1CCN(C(=O)c2ccccc2)C1=S | > 100 µM | > 100 µM | 79.5 µM | > 100 µM | > 100 µM | > 100 µM | 22.8 µM | 53 µM | 33.7 µM | > 100 µM | 50.4 µM | > 100 µM | – | – | 38.2 µM | > 100 µM | – | – | 18.8 µM | 79.9
16 | Cn1c2ccc([N+](=O)[O-])cc2c(=O)c2c(O)cc(O)cc21 | – | – | – | > 100 µM | – | 34.7 µM | – | > 100 µM | – | > 100 µM | – | > 100 µM | – | > 100 µM | – | 37.3 µM | – | > 100 µM | – | > 100
17 | Cc1nn2c(/C=C3/C(=O)Nc4ccccc43)c(-c3ccc(Cl)cc3)nc2s1 | 22.4 µM | > 50 µM | > 50 µM | > 50 µM | – | – | 10.7 µM | > 50 µM | > 50 µM | > 50 µM | 10.2 µM | 21.4 µM | 10.1 µM | 27.5 µM | 9.73 µM | 18.7 µM | > 50 µM | > 50 µM | 13.8 µM | > 50
18 | Cc1c(Cl)cccc1NC(=O)c1sc2nc3c(cc2c1N)CCCCCC3 | 0.326 µM | 19.8 µM | 0.113 µM | > 50 µM | – | – | 0.439 µM | 23.4 µM | 0.175 µM | > 50 µM | 0.205 µM | 46.6 µM | 1.14 µM | 25.1 µM | 0.223 µM | 14.3 µM | 0.202 µM | 9.16 µM | 0.101 µM | > 50
19 | O=C(N/N=C/c1ccc(O)cc1O)c1ccc(Nc2ccnc(C(F)(F)F)c2)cc1 | – | – | > 20.7 µM | > 100 µM | 3.72 µM | 26.7 µM | 22.2 µM | 79.9 µM | > 100 µM | > 100 µM | 0.0485 µM | > 100 µM | 26.4 µM | > 100 µM | 0.248 µM | 21.2 µM | > 41.3 µM | 97.4 µM | > 100 µM | > 100
20 | CN(C)CCCn1c2c3ccccc3ccc2c2oc(=O)c3ccccc3c21 | – | 15.4 µM | – | – | – | 12 µM | – | > 57.8 µM | – | 7.95 µM | – | 20.3 µM | – | > 51.8 µM | – | 9.26 µM | – | 28.6 µM | – | 5.56
